Test results taken from patent US20130095038A1, “PARTICLES, AND PHOTOACOUSTIC IMAGING CONTRAST AGENT AND SLN CONTRAST AGENT INCLUDING THE PARTICLES” (CANON KABUSHIKI KAISHA, priority 2011, published 2013).

Test system: mouse popliteal lymph nodes
Assay: Evaluation of accumulation in SLN
Format: in vivo
Description: Migration to SLN was evaluated using mouse popliteal lymph nodes. A probe was administered to a mouse from the sole of the hindlimb, and accumulation in the popliteal lymph nodes was evaluated as a model of evaluation of accumulation in SLN. Ten microliters of a sample was subcutaneously administered to a mouse from the sole of the hindlimb, and after 24 hours, mouse popliteal lymph nodes were harvested. The harvested mouse popliteal lymph nodes were crushed, and the absorbance of the extract from the crushed lymph nodes was measured. The accumulation rate was calculated based on the following expression:
Accumulation rate=[(absorbance of the extracted mouse popliteal lymph nodes)/(absorbance of the sample in an amount equivalent to the administered amount)]×100.
The accumulation ratios, to SLN, of the photoacoustic imaging contrast agents prepared in Examples B1 to B6 and reagents prepared in Comparative Examples B1 and B2 were calculated according to the above-described evaluation examples for accumulation in SLN. In Table B1, the accumulation ratio means an accumulation rate of each photoacoustic imaging contrast agent or the ICG-albumin complex when the accumulation rate of the ICG aqueous solution used in Comparative Example B1 is assumed as 1.

- Accumulation ratio (accumulation rate relative to ICG aqueous solution = 1, 10 μL subcutaneous, sole of hindlimb, 24 hours, absorbance at 790 or 800 nm): 1
- Accumulation in SLN (in words) (mouse, in vivo): low
SMILES: CC1(C)C(/C=C/C=C/C=C/C=C2/N(CCCCS(=O)(=O)[O-])c3ccc4ccccc4c3C2(C)C)=[N+](CCCCS(=O)(=O)[O-])c2ccc3ccccc3c21.[Na+] [ICG, indocyanine green]
